Among the data in PubChem BioAssay AID1195 (EPA DSSTox, 2008) are maximum recommended daily dose (mmol/kg-bw/day) values, retold here.

Structures are written as SMILES.

This series relates to human maximum recommended daily dose, FDA database. Nature of the series: DSSTox (FDAMDD) FDA Maximum (Recommended) Daily Dose Database. As to conditions: hits give low values. An outline of the steps:
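MRDD values come from clinical trials with daily oral dosing, usually for 3–12 months, for the average adult, in mg/day converted to mg/kg-bw/day assuming 60 kg. Antineoplastic mg/m2 doses are divided by 37. Activity score maps log10(1/MRDD mmol) onto 1–100.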

The mark [1] stands for this setting: TherapeuticCategory: diagnostic aid.
Where [2] appears, read: TherapeuticCategory: antineoplastic.
[3] abbreviates: TherapeuticCategory: anticholinergic.
Where [4] appears, read: TherapeuticCategory: skeletal muscle relaxant.
[5] abbreviates: TherapeuticCategory: glucocorticoid.
Setting [6] is: TherapeuticCategory: antibacterial.
Setting [7] is: TherapeuticCategory: antipsychotic.
The mark [8] stands for this setting: TherapeuticCategory: antidepressant.
Where [9] appears, read: TherapeuticCategory: antihypertensive, Ca channel blocker.

With `CCCC(=O)Nc1c(I)cc(I)c(CC(CC)C(=O)O)c1I` (stereo not drawn), under setting [1], the maximum recommended daily dose (mmol/kg-bw/day) was 0.0754. For `CC(C)C[C@H]1C(=O)N2CCC[C@H]2[C@]2(O)O[C@](NC(=O)[C@@H]3C=C4c5cccc6[nH]c(Br)c(c56)C[C@H]4N(C)C3)(C(C)C)C(=O)N12`, where the note is “TherapeuticCategory: enzyme inhibitor, antiparkinsonian”, the maximum recommended daily dose (mmol/kg-bw/day) was 0.00255. On to `CCCC[N+]1(C)[C@@H]2CC(OC(=O)[C@H](CO)c3ccccc3)C[C@H]1[C@@H]1O[C@@H]12` (stereo partly drawn), for which the maximum recommended daily dose (mmol/kg-bw/day) (TherapeuticCategory: antispasmotic) is 0.00302. Turning to `C[C@@H]1[C@H](O)[C@@H](C)/C=C/C=C/C=C/C=C/C=C/C=C/C=C/[C@H](O[C@@H]2O[C@H](C)[C@@H](O)[C@H](N)[C@@H]2O)C[C@@H]2O[C@](O)(C[C@@H](O)C[C@@H](O)[C@H](O)CC[C@@H](O)C[C@@H](O)CC(=O)O[C@H]1C)C[C@H](O)[C@H]2C(=O)O`, the maximum recommended daily dose (mmol/kg-bw/day) (TherapeuticCategory: antifungal) was 0.00162. Turning to `CC(CN1CC(=O)NC(=O)C1)N1CC(=O)NC(=O)C1` (stereo not drawn), the maximum recommended daily dose (mmol/kg-bw/day) under setting [2] is 0.0155. As for `C#C[C@]1(O)CC[C@H]2[C@@H]3CCC4=C[C@@H](O)CC[C@@H]4[C@H]3CC[C@@]21C`, the maximum recommended daily dose (mmol/kg-bw/day) (TherapeuticCategory: progestogen) was 5.56e-05. For `C[N+]1(C)CCN(CC(O)(c2ccccc2)C2CCCCC2)CC1` (stereo not drawn), the maximum recommended daily dose (mmol/kg-bw/day) under setting [3] was 0.0039. Consider `COc1cc(C[C@@H]2NCCc3cc(O)c(O)cc32)cc(OC)c1OC`, for which the maximum recommended daily dose (mmol/kg-bw/day) (TherapeuticCategory: bronchodilator) is 0.000869. For `CC(=O)NCc1c(I)c(NC(C)=O)c(I)c(C(=O)O)c1I`, under setting [1], the maximum recommended daily dose (mmol/kg-bw/day) is 0.159.

Turning to `COc1ccc2cc1Oc1cc3c(cc1OC)CC[N+](C)(C)[C@H]3Cc1ccc(cc1)Oc1c(OC)c(OC)cc3c1[C@@H](C2)[N+](C)(C)CC3`, under setting [4], the maximum recommended daily dose (mmol/kg-bw/day) is 0.000441.

With `CC(C)c1ccc2oc3nc(N)c(C(=O)O)cc3c(=O)c2c1`, the maximum recommended daily dose (mmol/kg-bw/day) (TherapeuticCategory: antiallergic, antiasthmatic) was 0.00838. In the case of `CCCCCCCCCCCCCCCCCC(=O)OCC(=O)OCC(=O)[C@@]1(O)CC[C@H]2[C@@H]3CCC4=CC(=O)C=C[C@]4(C)[C@H]3[C@@H](O)C[C@@]21C`, the maximum recommended daily dose (mmol/kg-bw/day) under setting [5] is 0.00486. `CC(=O)O[C@H]1C[C@H](O[C@H]2[C@@H](O)C[C@H](O[C@H]3[C@@H](O)C[C@H](O[C@H]4CC[C@@]5(C)[C@H](CC[C@@H]6[C@@H]5C[C@@H](O)[C@]5(C)[C@@H](C7=CC(=O)OC7)CC[C@]65O)C4)O[C@@H]3C)O[C@@H]2C)O[C@H](C)[C@H]1O[C@@H]1O[C@H](CO)[C@@H](O)[C@H](O)[C@H]1O`: for the setting “TherapeuticCategory: cardiotonic”, the maximum recommended daily dose (mmol/kg-bw/day) was 3.38e-05. `NS(=O)(=O)c1cc2c(cc1C(F)(F)F)NCNS2(=O)=O`: the maximum recommended daily dose (mmol/kg-bw/day) (TherapeuticCategory: antihypertensive, diuretic) was 0.0101. Regarding `COc1cc2c(cc1OC)C(Cc1cc(OC)c(OC)c(OC)c1)[N+](C)(CCCOC(=O)CC/C=C/CCC(=O)OCCC[N+]1(C)CCc3cc(OC)c(OC)cc3C1Cc1cc(OC)c(OC)c(OC)c1)CC2` (stereo not drawn), the maximum recommended daily dose (mmol/kg-bw/day) (TherapeuticCategory: skeletal muscle relaxant, neuromuscular blocker) is 0.000227. On to `O=C(O)C1=C(CSc2nnnn2CS(=O)(=O)O)CS[C@@H]2[C@H](NC(=O)[C@H](O)c3ccccc3)C(=O)N12`, for which, under setting [6], the maximum recommended daily dose (mmol/kg-bw/day) is 0.0308. Regarding `CSc1ccc2c(c1)N(CCC1CCCCN1C)c1ccccc1S2` (stereo not drawn), under setting [7], the maximum recommended daily dose (mmol/kg-bw/day) was 0.0359. Turning to `CN(C)CCCN1c2ccccc2Sc2ccccc21`, the maximum recommended daily dose (mmol/kg-bw/day) under setting [7] was 0.0587. Consider `Cc1ccccc1-n1c(CF)nc2ccc(N)cc2c1=O`, for which the maximum recommended daily dose (mmol/kg-bw/day) under setting [4] is 0.00353. As for `CC(=O)NS(=O)(=O)c1cc(N)ccc1S(=O)(=O)c1ccc(N)cc1`, under setting [6], the maximum recommended daily dose (mmol/kg-bw/day) was 0.17. In the case of `CCC(=O)OCC(=O)[C@@]1(OC(=O)CC)[C@H](C)C[C@H]2[C@@H]3CCC4=CC(=O)C=C[C@]4(C)[C@@]3(F)[C@@H](O)C[C@@]21C`, for the setting “TherapeuticCategory: glucocorticoid, anti inflammatory”, the maximum recommended daily dose (mmol/kg-bw/day) was 0.000297. Regarding `CC(O)C(=O)O` (stereo not drawn), the maximum recommended daily dose (mmol/kg-bw/day) (TherapeuticCategory: acidulant) was 1.11. As to `CCOC(=O)C(C)(C)Oc1ccc(Cl)cc1`, the maximum recommended daily dose (mmol/kg-bw/day) (TherapeuticCategory: antihyperlipoproteinemic) is 0.137. For the compound `CCn1cc(C(=O)O)c(=O)c2cc(F)c(N3CCNCC3)nc21`, under setting [6], the maximum recommended daily dose (mmol/kg-bw/day) is 0.0624. For the compound `O=C1C(O)N=C(c2ccccc2F)c2cc(Cl)ccc2N1CCO` (stereo not drawn), the maximum recommended daily dose (mmol/kg-bw/day) (TherapeuticCategory: sedative, hypnotic) is 0.000955. Consider `O=C(c1ccc(OCCN2CCCCC2)cc1)c1c(-c2ccc(O)cc2)sc2cc(O)ccc12`, for which, for the setting “TherapeuticCategory: antiosteoporotic, antiestrogen”, the maximum recommended daily dose (mmol/kg-bw/day) is 0.0211. For the compound `CN(CC(=O)N1CCOCC1)Cc1c(Cl)cccc1NC(=O)c1ccccc1`, the maximum recommended daily dose (mmol/kg-bw/day) (TherapeuticCategory: antitussive, respiratory stimulant) was 0.0199.

As for `Cc1cc(C(=O)NNCc2ccccc2)no1`, under setting [8], the maximum recommended daily dose (mmol/kg-bw/day) is 0.00432. Turning to `Cc1nc(N/C(N)=N/S(=O)(=O)c2ccc(N)cc2)oc1C`, the maximum recommended daily dose (mmol/kg-bw/day) under setting [6] was 0.129. Consider `CC(=O)O[C@H]1CC[C@@]2(C)C(=CC[C@@H]3[C@@H]2CC[C@]2(C)C(=O)CC[C@@H]32)C1`, for which the maximum recommended daily dose (mmol/kg-bw/day) (TherapeuticCategory: androgen) was 0.0101. Regarding `Cc1cccc(C)c1NC(=O)C1CCCCN1C` (stereo not drawn), the maximum recommended daily dose (mmol/kg-bw/day) (TherapeuticCategory: local anesthetic) was 0.0271. `O=C(O)C(Cl)Cl`: the maximum recommended daily dose (mmol/kg-bw/day) (TherapeuticCategory: caustic, keratolytic, topical astringent) is 0.517. In the case of `CC(=O)N(CC(C)C(=O)O)c1c(I)cc(I)c(N)c1I` (stereo not drawn), the maximum recommended daily dose (mmol/kg-bw/day) under setting [1] is 0.122. As to `S=P(N1CC1)(N1CC1)N1CC1`, the maximum recommended daily dose (mmol/kg-bw/day) under setting [2] is 0.00211. Take `CC(C)(C#N)c1cc(Cn2cncn2)cc(C(C)(C)C#N)c1`: the maximum recommended daily dose (mmol/kg-bw/day) (TherapeuticCategory: androgen) was 5.69e-05. As for `CC(=O)Nc1nnc(S(N)(=O)=O)s1`, under “TherapeuticCategory: carbonic anhydrase inhibitor, diuretic”, the maximum recommended daily dose (mmol/kg-bw/day) was 0.0751.

On to `O=C(O)P(=O)(O)O`, for which, for the setting “TherapeuticCategory: antiviral”, the maximum recommended daily dose (mmol/kg-bw/day) is 0.625.

With `CC(Oc1ccccc1)C(=O)N[C@@H]1C(=O)N2[C@@H]1SC(C)(C)[C@@H]2C(=O)O` (stereo partly drawn), the maximum recommended daily dose (mmol/kg-bw/day) under setting [6] is 0.137. With `CC[N+](C)(CC)CCOC(=O)C1c2ccccc2Oc2ccccc21`, the maximum recommended daily dose (mmol/kg-bw/day) under setting [3] was 0.0159. Turning to `CN1CCN(C(c2ccccc2)c2ccccc2)CC1`, the maximum recommended daily dose (mmol/kg-bw/day) (TherapeuticCategory: antiemetic) was 0.0125.

As for `CNC(C)(C)Cc1ccccc1`, the maximum recommended daily dose (mmol/kg-bw/day) (TherapeuticCategory: adrenergic) is 0.00613. As to `CC(C)[C@H](N)C(=O)OCCOCn1cnc2c(=O)[nH]c(N)nc21`, for the setting “TherapeuticCategory: antiviral”, the maximum recommended daily dose (mmol/kg-bw/day) is 0.154. As to `N[C@@H]1CONC1=O`, under setting [6], the maximum recommended daily dose (mmol/kg-bw/day) was 0.164. `CC(C)(O)CC(C)(O)c1ccc(Cl)cc1` (stereo not drawn): under setting [8], the maximum recommended daily dose (mmol/kg-bw/day) is 0.0437. Turning to `O=C1CN2CCOC2(c2ccccc2Cl)c2cc(Cl)ccc2N1` (stereo not drawn), the maximum recommended daily dose (mmol/kg-bw/day) (TherapeuticCategory: anxiolytic) was 0.000573. Consider `CO[C@@H]1[C@@H](O[C@@H]2O[C@H](C)[C@@H](O[C@H]3C[C@@](C)(O)[C@@H](O)[C@H](C)O3)[C@H](N(C)C)[C@H]2O)[C@@H](CC=O)C[C@@H](C)[C@@H](O[C@@H]2CC[C@H](N(C)C)[C@@H](C)O2)/C=C/C=C/C[C@@H](C)OC(=O)C[C@H]1O`, for which the maximum recommended daily dose (mmol/kg-bw/day) under setting [6] is 0.0791. As to `CC(C)(C)NCC(O)COc1ccccc1C#N` (stereo not drawn), under “TherapeuticCategory: antihypertensive, antianginal, antiarrhythmic”, the maximum recommended daily dose (mmol/kg-bw/day) was 0.00269. For `CN(C)CCC(O)(c1ccccc1)c1ccccc1Cl` (stereo not drawn), for the setting “TherapeuticCategory: antitussive”, the maximum recommended daily dose (mmol/kg-bw/day) is 0.00576. Take `CC(CN(C)C)CN1c2ccccc2Sc2ccccc21` (stereo not drawn): the maximum recommended daily dose (mmol/kg-bw/day) (TherapeuticCategory: antipruritic) was 0.0056. Take `CC1=C(CC(=O)O)c2cc(F)ccc2/C1=C/c1ccc(S(C)=O)cc1` (stereo not drawn): for the setting “TherapeuticCategory: anti inflammatory”, the maximum recommended daily dose (mmol/kg-bw/day) is 0.0187. As to `COCC(=O)O[C@]1(CCN(C)CCCc2nc3ccccc3[nH]2)CCc2cc(F)ccc2[C@@H]1C(C)C`, the maximum recommended daily dose (mmol/kg-bw/day) under setting [9] was 0.00337. `CC1CC(OC(=O)C(O)c2ccccc2)CC(C)(C)C1` (stereo not drawn): the maximum recommended daily dose (mmol/kg-bw/day) (TherapeuticCategory: vasodilator) was 0.0966. For `CN(C)CCN1C(=O)c2ccccc2N(C)c2ccccc21`, the maximum recommended daily dose (mmol/kg-bw/day) under setting [8] is 0.0406. As to `C[C@H]1CC2=CC(=O)CC[C@]2(C)[C@H]2CC[C@@]3(C)[C@@H](CC[C@]3(C)O)[C@H]12`, under setting [2], the maximum recommended daily dose (mmol/kg-bw/day) is 0.0158. As to `CO/N=C(\C(=O)N[C@@H]1C(=O)N2C(C(=O)O)=C(CSc3nc(C)c(CC(=O)O)s3)CS[C@H]12)c1csc(N)n1`, the maximum recommended daily dose (mmol/kg-bw/day) under setting [6] is 0.057. In the case of `CNC(C)CCC=C(C)C` (stereo not drawn), the maximum recommended daily dose (mmol/kg-bw/day) (TherapeuticCategory: adrenergic, bronchodilator, mydriatic, antiglaucoma) was 0.0384. For the compound `CCCCC(=O)O[C@]1(C(=O)COC(C)=O)CC[C@H]2[C@@H]3CCC4=CC(=O)C=C[C@]4(C)[C@H]3[C@@H](O)C[C@@]21C`, under setting [5], the maximum recommended daily dose (mmol/kg-bw/day) was 0.00684. With `CN(C)CCO`, the maximum recommended daily dose (mmol/kg-bw/day) under setting [8] is 0.168. Turning to `COC(=O)C1=C(C)NC(C)=C(C(=O)O[C@@H]2CCCN(Cc3ccccc3)C2)[C@@H]1c1cccc([N+](=O)[O-])c1`, under setting [9], the maximum recommended daily dose (mmol/kg-bw/day) is 0.000263. For `CC(C)(C)NCC(O)c1cc(O)cc(O)c1` (stereo not drawn), the maximum recommended daily dose (mmol/kg-bw/day) (TherapeuticCategory: bronchodilator, tocolytic) is 0.00111. Regarding `CC(=O)c1ccc(S(=O)(=O)NC(=O)NC2CCCCC2)cc1`, for the setting “TherapeuticCategory: antidiabetic”, the maximum recommended daily dose (mmol/kg-bw/day) is 0.0771.

`CC[C@H]1OC(=O)[C@H](C)[C@@H](O[C@H]2C[C@@](C)(OC)[C@@H](O)[C@H](C)O2)C(C)[C@@H](O[C@@H]2O[C@H](C)C[C@H](N(C)C)[C@H]2O)[C@](C)(OC)C[C@@H](C)C(=O)[C@H](C)[C@@H](O)[C@]1(C)O` (stereo partly drawn): the maximum recommended daily dose (mmol/kg-bw/day) under setting [6] was 0.0111. `Cc1cccc(C)c1NC(=O)c1cc(S(N)(=O)=O)c(Cl)cc1O`: where the note is “TherapeuticCategory: diuretic, antihypertensive”, the maximum recommended daily dose (mmol/kg-bw/day) was 0.00188.
